The numbers were not newly measured in patent publication US20240408573A1, “ACIDIC GAS ADSORBENT AND ACIDIC GAS ADSORPTION DEVICE” (NITTO DENKO CORPORATION, priority 2021, published 2024), which cites them from elsewhere.

The conditions of series [1]: safety index in terms of handling.
Series [2] relates to rabbits.
For series [3] the following is noted: safety index in terms of handling. This is another data set of the same source.
For series [4] the following is noted: safety index in terms of handling. This is another data set of the same source.

The structures appear in SMILES notation.

For `NCCNCCNCCN` [TETA, triethylenetetramine], the “Mutagenicity test (Ames test)” value in series [1] is given as “Positive”. The “Skin irritation test (rabbit)” value in series [2] was “Strong irritant”. In addition, the “Fire Service Act” value in series [3] is “Hazardous material”. Further, the “Poisonous and Deleterious Substances Control Act” value in series [4] is given as “Deleterious”.
